Structures can show the parent of a compound that is named as a salt.
Tests used:
CT26 cells [1] = test: Anti-tumor activity in transplantation tumor model of CT26 nude mouse; type: in vivo, BALB/c nude mice; settings: for Tumor growth inhibition rate in T cell immunodeficient nude mice: Day 9 post-dosing, 50 μg/mouse (2.5 mg/kg) intratumorally, Day 0 and Day 4; for Tumor growth inhibition in immuno-competent mice versus nude mice (in words): FIG. 2D
Method: BALB/c nude mice of 6-8 weeks (purchased from Shanghai Ling Chang Biotech Co., Ltd.) were inoculated with 5×10^5 CT26 cells (supplied by Taicang Zexin Biotechnology Co., Ltd., ATCC #CRL-2638) subcutaneously on the right back dorsal, respectively, and the inoculation volume was 0.1 mL. When tumors grew to an average volume of 100 mm^3, they were randomized according to tumor size and mouse body weight and dosed. The day of the first dose was Day 0. Two doses were administered on Day 0 and Day 4, with 50 μg of compound/mouse (i.e., 2.5 mg/kg) injected intratumorally right side, with the same volume of PBS (Hyclone, Cat #SH30258.01) as a control. The control mice were sacrificed 9 days, the ADU-S100 treated mice were sacrificed 14 days, and Example 10 treated mice were sacrificed 16 days, after dosing, respectively. During the experiment, tumor volumes and the body weights were measured 3 times per week, and the tumor volume was calculated as V=D×d×d/2 (Ibid).

[2] = tested on: IFN-β secretion by THP-1 cells; test: Activation of IFN-β secretion by THP-1 cells (Human IFN-beta ELISA); type: cell-based; settings: for EC50 / Activating effect on IFN-β secretion / STING agonist activity (in words): THP-1 cells; for EC50: 24 hours, IFN-β ELISA; for Activating effect on IFN-β secretion / STING agonist activity (in words): EC50 compared with 2′,3′-cGAMP and ADU-S100; for Highest concentration of IFN-β secreted by stimulated THP-1 cells: compared with ADU-S100
Method: THP-1 cell, a human monocytic leukemia cell line, has the STING phenotype of HAQ type, i.e., R71H-G230A-R293Q. This assay used the Human IFN-beta DuoSet ELISA Kit from R & D (R & D, Cat #DY814-05) and the DuoSet ELISA Ancillary Reagent Kit 2 (R & D, Cat #DY008) to evaluate the activation of IFN-β secretion from THP-1 cells by representative compounds of the invention.
In thawing the THP-1 cells (ATCC #TIB-202), a cell freezing tube was quickly shaken in a water bath at 37° C. to thaw the cells within 1 min. The thawed cell suspension was taken and evenly mixed with an RPMI1640 medium (Hyclone, product #SH30027.01) containing 10% FBS (Life Technology, Cat #10099-141), centrifuged for 5 min at 1000 rpm, and the supernatant was discarded. The cell pellet was resuspended in 5 mL of the complete medium (RPMI 1640 medium containing 10% FBS), placed into a cell culture flask with a bottom area of 25 cm^2, and incubated in a cell incubator at 37° C., 5% CO2 and 95% humidity. When the cell confluence reached about 80%, the cells were passaged. All the cells in the culture flask were transferred to a 15 mL centrifuge tube, centrifuged for 5 min at 1000 rpm, and the supernatant was discarded. 5 mL of fresh complete medium was added to re-suspend the cell pellet, 1 mL of which was taken to place in a cell culture flask with a bottom area of 25 cm^2, supplemented with 4 mL of fresh complete medium for further incubation. When the cell confluence reached about 80% again, plating was conducted following the procedure of cell passage, retaining 1/5 cell suspension for further inculation and remaining 4/5 of the cell suspension in a 15 mL centrifuge tube. The cell suspension was centrifuged to discard the old culture medium, washed once using RPMI1640 culture medium (serum-free), and centrifuged to remove the supernatant. The cells were then re-suspended in RPMI1640 culture medium (serum-free). Cell viability was then detected by Trypan blue exclusion test and to be used for plating when the cell viability was confirmed to be more than 95%. A cell suspension with a density of 1.1×10^6 viable cells/mL was prepared using RPMI1640 culture medium (serum-free), and 180 μL of the cell suspension was added to a 96-well cell culture plate (NUNC Company, Cat #167008) so that the cell density in the plate was 2×10^5 viable cells/well.
A 10 mM stock solution of the compounds in DMSO was first serially diluted at 3.16-fold with DMSO (Sigma, Cat #D2650) to the 5th concentration, and the 6th concentration was set as DMSO control (compound-free). Then, the DMSO solutions containing different concentrations of the compounds were diluted at 10-fold with PBS so that the DMSO content in each compound solution of various concentrations was 10%. Finally, 20 μL of each of such solutions was added into corresponding cell culture plate to provide an initial compound concentration of 100 μM, with the dilution fold of adjacent concentrations being 3.16 and the DMSO content in the cell culture plate being 1%. The cell plate was placed in a cell incubator for further 24 hours.
ELISA detection was conducted referring to the instructions from R & D System, Cat #DY814-05.
ELISA plate coating: PBS (R & D System Cat #DY006) was used to dilute the capture antibody (mouse anti-human IFN-β capture antibody PART #844508) to provide the working concentration, and 100 μL capture antibody working solution was added to a 96-well ELISA plate which was then sealed and incubated overnight at room temperature. Upon discarding the capture antibody working solution, the cell plate was washed 3 times with a washing buffer (0.05% Tween-20 in PBS, pH 7.2-7.4, R & D System Cat #WA126) at 400 μL of the washing buffer per well, and the washing buffer was thoroughly removed after each washing, with the final washing to be completely removed of the wash buffer by inverting and claping the plate to a clean piece of paper. […]

CT26 cells [3] = test: Immunological memory function in CT26 transplantation tumor model, syngeneic or nude mouse (re-inoculation); type: in vivo, BALB/c immune-competent or nude mice; settings: for Average tumor volume after re-inoculation of CT26 cells: immunocompetent BALB/c mice
Method: BALB/c immune-competent or nude mice of 6-8 weeks (purchased from Shanghai Ling Chang Biotech Co., Ltd.) were inoculated with 5×10^5 CT26 cells (supplied by Taicang Zexin Biotechnology Co., Ltd., ATCC #CRL-2638) subcutaneously on the right back dorsal, respectively, and the inoculation volume was 0.1 mL. When tumors grew to an average volume of 100 mm^3, they were randomized according to tumor size and mouse body weight and dosed. The day of the first dose was Day 0. Two doses were administered on Day 0 and Day 4, with 50 μg of compound/mouse (i.e., 2.5 mg/kg) injected intratumorally, with the same volume of PBS (Hyclone, Cat #SH30258.01) as a control. Mice in the nude or BALB/c mice groups were sacrificed on Day 9 or Day 13 post-dosing, respectively. On Day 21 post-dosing, mice were inoculated again subcutaneously on the left back dorsal with 5×10^5 CT26 cells in a volume of 0.1 mL. Blank BALB/c or nude mice without any treatment were also inoculated as controls. During the experiment, tumor volumes and the body weights were measured 3 times per week, and the tumor volume was calculated as V=D×d×d/2 (Ibid).

`Nc1ncnc2c1ncn2[C@@H]1O[C@@H]2COP(=O)([S-])O[C@@H]3[C@H](O)[C@@H](COP([O-])(=S)O[C@H]2[C@H]1O)O[C@H]3n1cnc2c(N)ncnc21.[Na+].[Na+]` (some centres unmarked) [ADU-S100, reference compound] was tested, and the “Tumor growth inhibition rate in T cell immunodeficient nude mice” value (CT26 cells [1]) was 61.4%, the “Tumor growth inhibition in immuno-competent mice versus nude mice (in words)” value (CT26 cells [1]) was “better tumor growth inhibition in immuno-competent mice than in nude mice” and the EC50 [2] was 1 to 10 µM.

With `Nc1nc2c(ncn2[C@@H]2O[C@@H]3CO[P@@](=O)(S)OC4C(F)[C@H](n5cnc6c(N)nc(Cl)nc65)O[C@@H]4CO[P@@](=O)(S)OC2C3O)c(=O)[nH]1` (stereo partly drawn) [Example 10, (2′,3′)-cyclo-(Rp,Rp)-[2′-O-phosphorothioate-diester-guanosine]-[3′-O-phosphorothioate-diester-2-chloro-2′-deoxy-2′-fluoro-beta-adenosine] diammonium salt] the “Tumor growth inhibition rate in T cell immunodeficient nude mice” value (CT26 cells [1]) was 94.4%, the “Tumor growth inhibition in immuno-competent mice versus nude mice (in words)” value (CT26 cells [1]) was “better tumor growth inhibition in immuno-competent mice than in nude mice” and the “CT26 tumor growth inhibition in immunocompetent and immunodeficient mice (in words)” value (CT26 cells [3]; 50 μg/mouse intratumorally, Day 0 and Day 4) was “significantly inhibited CT26 tumor growth in both immunocompetent and immunodeficient mice”. The “Tumor status in treated immunocompetent mice” value (CT26 cells [3]; Day 5 post-dosing) was “the tumors completely disappeared”, the “Average tumor volume after re-inoculation of CT26 cells” value (CT26 cells [3]; re-inoculated Day 21, end of experiment Day 33) was 101 mm^3 and the “Average tumor volume after re-inoculation of CT26 cells” value (CT26 cells [3]; re-inoculated Day 21, measured Day 30) was 29 mm^3. For the same molecule, the “Immunological memory in immunocompetent mice” value (CT26 cells [3]; re-inoculated CT26 cells) was “developed an immunological memory”, the “Immunological memory in immunodeficient nude mice” value (CT26 cells [3]; re-inoculated CT26 cells Day 21) was “no immunological memory has been generated” and the EC50 ([2]; Homo sapiens, THP-1, 24 h) was 1 to 10 µM. The “Activating effect on IFN-β secretion / STING agonist activity (in words)” value [2] was “significant STING agonist activity” and the “Highest concentration of IFN-β secreted by stimulated THP-1 cells” value [2] was “higher than that of ADU-S100”.

With `Nc1nc2c(ncn2[C@@H]2O[C@@H]3CO[P@@](=O)(S)OC4C(F)[C@H](n5cnc6c(N)nc(Cl)nc65)O[C@@H]4CO[P@@](=O)(S)OC3C2O)c(=O)[nH]1` (some centres unmarked) [Example 17, diammonium salt] the EC50 ([2]; Homo sapiens, THP-1, 24 h) was 1 to 10 µM, the “Activating effect on IFN-β secretion / STING agonist activity (in words)” value [2] was “significant STING agonist activity” and the “Highest concentration of IFN-β secreted by stimulated THP-1 cells” value [2] was “higher than that of ADU-S100”.
